Experimental data from US20180289678A1, “PHARMACEUTICAL COMPOSITION, PHARMACEUTICAL DOSAGE FORM, PROCESS FOR THEIR PREPARATION, METHODS FOR TREATING AND USES THEREOF” (Boehringer Ingelheim International GmbH, priority 2009, published 2018).
Like-named read-outs stand apart in the source and are kept apart here.

Assay: Study .2: multiple rising dose trial in diabetic patients, once daily for 8 days, pharmacokinetic parameters
Assay type: in vivo, human
Conditions: for AUCτ,ss,norm Max / AUCτ,ss,norm Median / AUCτ,ss,norm Min / AUCτ,ss,norm gMean / Cmax,ss,norm Max / Cmax,ss,norm Median / Cmax,ss,norm Min / Cmax,ss,norm gMean: Study .2, steady state, dose-normalized
Experimental: 5. Pharmacokinetic Parameters
The pharmacokinetic parameters of pharmaceutical compositions and pharmaceutical dosage forms are assessed in healthy volunteer and patient populations. In the studies shown below, the participants fasted on the day of sampling, unless as otherwise stated (see for example study .3). The active substance in the studies below is the compound (I.9), preferably in the crystalline form (I.9X), and the dose of active ingredient is indicated in mg.
For the quantification of plasma concentrations of the active ingredient, 2.7 mL of blood was collected and transferred into an EDTA (ethylendiaminetetraacetic acid)-anticoagulant blood drawing tube. The EDTA-anticoagulated blood samples were centrifuged immediately after collection. Centrifugation lasted for about 10 minutes (at about 2,000×gf to 4,000×gf) at 4-8° C. or within 30 minutes while stored on ice. Concentrations of active substance in EDTA human plasma samples were quantitated using a HPLC/MS/MS method. The assay method comprised a solid phase supported liquid-liquid extraction of human plasma coupled with HPLC/MS/MS determination of the extracted samples. The HPLC/MS/MS assay was validated for the range of 1.11 to 1110 nM in human plasma.
Study .2: Multiple rising dose trial in a diabetic patient population of N=48, once daily administration for 8 days. Patients were administered tablets as described in Example 10 (section Examples of formulations).
AUC0-inf:area under the concentration-time curve of the analyte in plasma over the time interval from 0 extrapolated to infinity.
Cmax: maximum concentration of the analyte in plasma.
Tmax: time from dosing to maximum concentration.
AUCT,SS:area under the concentration-time curve of the analyte in plasma over the time interval from 0 to 24 h at steady-state.
Cmax,ss:maximum concentration of the analyte in plasma at steady state over a uniform dosing interval.
tmax,ss:time from dosing to maximum concentration at steady state.

[1] = 2.5 mg once daily, steady state, Study .2, fasted
[2] = 2.5 mg single dose, Study .2, fasted
[3] = 10 mg once daily, steady state, Study .2, fasted
[4] = 10 mg single dose, Study .2, fasted
[5] = 25 mg once daily, steady state, Study .2, fasted
[6] = 25 mg single dose, Study .2, fasted

AUCτ,ss Max [1]: 0.677 µM·h
AUCτ,ss Mean [1]: 0.471 µM·h
AUCτ,ss Min [1]: 0.283 µM·h
tmax,ss Median [1]: 1.50 h
tmax,ss Min [1]: 0.983 h
Cmax (2.5 mg once daily, steady state, Study .2, fasted, read-out: Cmax,ss Max): 96.3 nM
Cmax (2.5 mg once daily, steady state, Study .2, fasted, read-out: Cmax,ss Mean): 68.5 nM
Cmax (2.5 mg once daily, steady state, Study .2, fasted, read-out: Cmax,ss Min): 40.3 nM
AUC0-inf Max [2]: 0.631 µM·h
AUC0-inf Min [2]: 0.326 µM·h
AUC0-inf,norm Max [2]: 252 nmol·h/L/mg
AUC0-inf,norm Median [2]: 200 nmol·h/L/mg
AUC0-inf,norm Min [2]: 130 nmol·h/L/mg
AUC0-inf,norm gMean [2]: 187 nmol·h/L/mg
Cmax,norm Max [2]: 32 nmol/L/mg
Cmax,norm Median [2]: 25 nmol/L/mg
Cmax,norm Min [2]: 17 nmol/L/mg
Cmax,norm gMean [2]: 25 nmol/L/mg
tmax Max [2]: 1.50 h
tmax Min [2]: 0.667 h
Cmax (2.5 mg single dose, Study .2, fasted, read-out: Cmax Max): 81.2 nM
Cmax (2.5 mg single dose, Study .2, fasted, read-out: Cmax Mean): 62.4 nM
Cmax (2.5 mg single dose, Study .2, fasted, read-out: Cmax Min): 43.3 nM
AUCτ,ss Max [3]: 2.58 µM·h
AUCτ,ss Mean [3]: 2.03 µM·h
AUCτ,ss Min [3]: 1.64 µM·h
tmax,ss Min [3]: 0.983 h
Cmax (10 mg once daily, steady state, Study .2, fasted, read-out: Cmax,ss Max): 479 nM
Cmax (10 mg once daily, steady state, Study .2, fasted, read-out: Cmax,ss Mean): 283 nM
Cmax (10 mg once daily, steady state, Study .2, fasted, read-out: Cmax,ss Min): 172 nM
AUC0-inf Max [4]: 2.4 µM·h
AUC0-inf Min [4]: 1.6 µM·h
AUC0-inf,norm Max [4]: 240 nmol·h/L/mg
AUC0-inf,norm Median [4]: 183 nmol·h/L/mg
AUC0-inf,norm Min [4]: 160 nmol·h/L/mg
AUC0-inf,norm gMean [4]: 189 nmol·h/L/mg
Cmax,norm Max [4]: 34 nmol/L/mg
Cmax,norm Median [4]: 23 nmol/L/mg
Cmax,norm Min [4]: 16 nmol/L/mg
Cmax,norm gMean [4]: 24 nmol/L/mg
tmax Median [4]: 1.50 h
tmax Min [4]: 0.983 h
Cmax (10 mg single dose, Study .2, fasted, read-out: Cmax Max): 344 nM
Cmax (10 mg single dose, Study .2, fasted, read-out: Cmax Mean): 245 nM
Cmax (10 mg single dose, Study .2, fasted, read-out: Cmax Min): 163 nM
AUCτ,ss Max [5]: 6.65 µM·h
AUCτ,ss Mean [5]: 4.99 µM·h
AUCτ,ss Min [5]: 3.44 µM·h
tmax,ss Max [5]: 4.20 h
tmax,ss Min [5]: 0.667 h
Cmax (25 mg once daily, steady state, Study .2, fasted, read-out: Cmax,ss Max): 793 nM
Cmax (25 mg once daily, steady state, Study .2, fasted, read-out: Cmax,ss Mean): 630 nM
Cmax (25 mg once daily, steady state, Study .2, fasted, read-out: Cmax,ss Min): 443 nM
AUC0-inf Max [6]: 6.92 µM·h
AUC0-inf Min [6]: 3.69 µM·h
AUC0-inf,norm Max [6]: 277 nmol·h/L/mg
AUC0-inf,norm Median [6]: 186 nmol·h/L/mg
AUC0-inf,norm Min [6]: 148 nmol·h/L/mg
AUC0-inf,norm gMean [6]: 191 nmol·h/L/mg
Cmax,norm Max [6]: 36 nmol/L/mg
Cmax,norm Median [6]: 23 nmol/L/mg
Cmax,norm Min [6]: 17 nmol/L/mg
Cmax,norm gMean [6]: 24 nmol/L/mg
tmax Max [6]: 4.00 h
tmax Min [6]: 0.983 h
Cmax (25 mg single dose, Study .2, fasted, read-out: Cmax Max): 905 nM
Cmax (25 mg single dose, Study .2, fasted, read-out: Cmax Mean): 606 nM
Cmax (25 mg single dose, Study .2, fasted, read-out: Cmax Min): 420 nM
AUCτ,ss,norm Max (dose 2.5 mg, plasma): 271 nmol·h/L/mg
AUCτ,ss,norm Median (dose 2.5 mg, plasma): 183 nmol·h/L/mg
AUCτ,ss,norm Min (dose 2.5 mg, plasma): 113 nmol·h/L/mg
AUCτ,ss,norm gMean (dose 2.5 mg, plasma): 184 nmol·h/L/mg
Cmax,ss,norm Max (dose 2.5 mg, plasma): 39 nmol/L/mg
Cmax,ss,norm Median (dose 2.5 mg, plasma): 29 nmol/L/mg
Cmax,ss,norm Min (dose 2.5 mg, plasma): 16 nmol/L/mg
Cmax,ss,norm gMean (dose 2.5 mg, plasma): 27 nmol/L/mg
AUCτ,ss,norm Max (dose 10 mg, plasma): 258 nmol·h/L/mg
AUCτ,ss,norm Median (dose 10 mg, plasma): 194 nmol·h/L/mg
AUCτ,ss,norm Min (dose 10 mg, plasma): 164 nmol·h/L/mg
AUCτ,ss,norm gMean (dose 10 mg, plasma): 200 nmol·h/L/mg
Cmax,ss,norm Max (dose 10 mg, plasma): 48 nmol/L/mg
Cmax,ss,norm Median (dose 10 mg, plasma): 28 nmol/L/mg
Cmax,ss,norm Min (dose 10 mg, plasma): 17 nmol/L/mg
Cmax,ss,norm gMean (dose 10 mg, plasma): 27 nmol/L/mg
AUCτ,ss,norm Max (dose 25 mg, plasma): 266 nmol·h/L/mg
AUCτ,ss,norm Median (dose 25 mg, plasma): 182 nmol·h/L/mg
AUCτ,ss,norm Min (dose 25 mg, plasma): 138 nmol·h/L/mg
AUCτ,ss,norm gMean (dose 25 mg, plasma): 196 nmol·h/L/mg
Cmax,ss,norm Max (dose 25 mg, plasma): 32 nmol/L/mg
Cmax,ss,norm Median (dose 25 mg, plasma): 24 nmol/L/mg
Cmax,ss,norm Min (dose 25 mg, plasma): 18 nmol/L/mg
Cmax,ss,norm gMean (dose 25 mg, plasma): 25 nmol/L/mg
AUC (human, plasma, oral, 2.5 mg, 2.5 mg once daily, steady state, Study .2, fasted, read-out: AUCτ,ss Median): 0.458 µM·h
AUC (human, plasma, oral, 2.5 mg, 2.5 mg once daily, steady state, Study .2, fasted, read-out: AUCτ,ss gMean): 0.46 µM·h
Cmax (human, plasma, oral, 2.5 mg, 2.5 mg once daily, steady state, Study .2, fasted, read-out: Cmax,ss Median): 72 nM
Cmax (human, plasma, oral, 2.5 mg, 2.5 mg once daily, steady state, Study .2, fasted, read-out: Cmax,ss gMean): 66.6 nM
Tmax (human, plasma, oral, 2.5 mg, 2.5 mg once daily, steady state, Study .2, fasted, read-out: tmax,ss Mean): 1.33 h
Tmax (human, plasma, oral, 2.5 mg, 2.5 mg once daily, steady state, Study .2, fasted, read-out: tmax,ss g Mean): 1.28 h
AUC(0-inf) (human, plasma, oral, 2.5 mg, 2.5 mg single dose, Study .2, fasted, read-out: AUC0-inf Mean): 0.476 µM·h
AUC(0-inf) (human, plasma, oral, 2.5 mg, 2.5 mg single dose, Study .2, fasted, read-out: AUC0-inf Median): 0.501 µM·h
AUC(0-inf) (human, plasma, oral, 2.5 mg, 2.5 mg single dose, Study .2, fasted, read-out: AUC0-inf gMean): 0.468 µM·h
Cmax (human, plasma, oral, 2.5 mg, 2.5 mg single dose, Study .2, fasted, read-out: Cmax Median): 62.6 nM
Cmax (human, plasma, oral, 2.5 mg, 2.5 mg single dose, Study .2, fasted, read-out: Cmax gMean): 61.3 nM
Tmax (human, plasma, oral, 2.5 mg, 2.5 mg single dose, Study .2, fasted, read-out: tmax Mean): 1.41 h
Tmax (human, plasma, oral, 2.5 mg, 2.5 mg single dose, Study .2, fasted, read-out: tmax Median): 1.5 h
Tmax (human, plasma, oral, 2.5 mg, 2.5 mg single dose, Study .2, fasted, read-out: tmax gMean): 1.37 h
AUC (human, plasma, oral, 10 mg, 10 mg once daily, steady state, Study .2, fasted, read-out: AUCτ,ss Median): 1.94 µM·h
AUC (human, plasma, oral, 10 mg, 10 mg once daily, steady state, Study .2, fasted, read-out: AUCτ,ss gMean): 2 µM·h
Cmax (human, plasma, oral, 10 mg, 10 mg once daily, steady state, Study .2, fasted, read-out: Cmax,ss Median): 279 nM
Cmax (human, plasma, oral, 10 mg, 10 mg once daily, steady state, Study .2, fasted, read-out: Cmax,ss gMean): 272 nM
Tmax (human, plasma, oral, 10 mg, 10 mg once daily, steady state, Study .2, fasted, read-out: tmax,ss Mean): 1.43 h
Tmax (human, plasma, oral, 10 mg, 10 mg once daily, steady state, Study .2, fasted, read-out: tmax,ss Median): 1.5 h
Tmax (human, plasma, oral, 10 mg, 10 mg once daily, steady state, Study .2, fasted, read-out: tmax,ss g Mean): 1.4 h
AUC(0-inf) (human, plasma, oral, 10 mg, 10 mg single dose, Study .2, fasted, read-out: AUC0-inf Mean): 1.91 µM·h
AUC(0-inf) (human, plasma, oral, 10 mg, 10 mg single dose, Study .2, fasted, read-out: AUC0-inf Median): 1.83 µM·h
AUC(0-inf) (human, plasma, oral, 10 mg, 10 mg single dose, Study .2, fasted, read-out: AUC0-inf gMean): 1.89 µM·h
Cmax (human, plasma, oral, 10 mg, 10 mg single dose, Study .2, fasted, read-out: Cmax Median): 233 nM
Cmax (human, plasma, oral, 10 mg, 10 mg single dose, Study .2, fasted, read-out: Cmax gMean): 240 nM
Tmax (human, plasma, oral, 10 mg, 10 mg single dose, Study .2, fasted, read-out: tmax Mean): 1.5 h
Tmax (human, plasma, oral, 10 mg, 10 mg single dose, Study .2, fasted, read-out: tmax gMean): 1.48 h
AUC (human, plasma, oral, 25 mg, 25 mg once daily, steady state, Study .2, fasted, read-out: AUCτ,ss Median): 4.56 µM·h
AUC (human, plasma, oral, 25 mg, 25 mg once daily, steady state, Study .2, fasted, read-out: AUCτ,ss gMean): 4.89 µM·h
Cmax (human, plasma, oral, 25 mg, 25 mg once daily, steady state, Study .2, fasted, read-out: Cmax,ss Median): 603 nM
Cmax (human, plasma, oral, 25 mg, 25 mg once daily, steady state, Study .2, fasted, read-out: Cmax,ss gMean): 622 nM
Tmax (human, plasma, oral, 25 mg, 25 mg once daily, steady state, Study .2, fasted, read-out: tmax,ss Mean): 2.26 h
Tmax (human, plasma, oral, 25 mg, 25 mg once daily, steady state, Study .2, fasted, read-out: tmax,ss g Mean): 1.97 h
AUC(0-inf) (human, plasma, oral, 25 mg, 25 mg single dose, Study .2, fasted, read-out: AUC0-inf Mean): 4.9 µM·h
AUC(0-inf) (human, plasma, oral, 25 mg, 25 mg single dose, Study .2, fasted, read-out: AUC0-inf Median): 4.64 µM·h
AUC(0-inf) (human, plasma, oral, 25 mg, 25 mg single dose, Study .2, fasted, read-out: AUC0-inf gMean): 4.78 µM·h
Cmax (human, plasma, oral, 25 mg, 25 mg single dose, Study .2, fasted, read-out: Cmax Median): 569 nM
Cmax (human, plasma, oral, 25 mg, 25 mg single dose, Study .2, fasted, read-out: Cmax gMean): 592 nM
Tmax (human, plasma, oral, 25 mg, 25 mg single dose, Study .2, fasted, read-out: tmax Mean): 1.72 h
Tmax (human, plasma, oral, 25 mg, 25 mg single dose, Study .2, fasted, read-out: tmax Median): 1.5 h
Tmax (human, plasma, oral, 25 mg, 25 mg single dose, Study .2, fasted, read-out: tmax gMean): 1.6 h
SMILES: OC[C@H]1O[C@@H](c2ccc(Cl)c(Cc3ccc(O[C@H]4CCOC4)cc3)c2)[C@H](O)[C@@H](O)[C@@H]1O [Compound (I.9), 1-chloro-4-(β-D-glucopyranos-1-yl)-2-[4-((S)-tetrahydrofuran-3-yloxy)-benzyl]-benzene]
